Source: patent US8859496B2, “Pharmaceutical composition using connective-tissue growth factor” (Postech Academy-Industry Foundation, priority 2010, dated 2014)
No end group written: not given here.

How the values were obtained:
[1] = target: T1, FPRL1 (Homo sapiens, UniProt P25090); assay: ERK phosphorylation in FPRL1/RBL cells (immunoblot); assay type: cell-based; settings: FPRL1/RBL cells
T1 construct: expressed in transfected cells; host or cells: rat basophil leukemia RBL-2H3 cells, kept under G418
T1 sequence (P25090 1-351): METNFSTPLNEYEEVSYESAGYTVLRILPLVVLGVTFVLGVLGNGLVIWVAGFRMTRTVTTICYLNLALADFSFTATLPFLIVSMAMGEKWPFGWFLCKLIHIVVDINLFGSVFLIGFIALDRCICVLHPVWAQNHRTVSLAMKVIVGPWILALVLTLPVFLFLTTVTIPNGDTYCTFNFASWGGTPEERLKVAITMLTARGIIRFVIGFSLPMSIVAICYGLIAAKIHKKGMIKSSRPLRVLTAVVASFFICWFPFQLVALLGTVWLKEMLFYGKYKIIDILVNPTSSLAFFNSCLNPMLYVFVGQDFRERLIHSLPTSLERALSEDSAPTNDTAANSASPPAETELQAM
Protocol: Vector/RBL cells, FPR/RBL cells, FPRL1/RBL cells, and HUVECs were cultured to confluence, and serum-starved. The stimulated cells (1×10^5 cells) were washed with PBS twice, dissolved in 1 ml of sample buffer (50 mM Tris-HCl, 100 mM NaCl, 0.1% SDS, 1% Nonidet P-40, 50 mM NaF, 1 mM Na3VO4, 1 μg/ml aprotinin, 1 μg/ml pepstatin, and 1 μg/ml leupeptin), heated at 95° C. for 30 seconds, separated with SDS-PAGE, and then, transferred to a nitrocellulose film. Immunoblot was conducted using anti-phospho-ERK (extracellular signal regulated kinase)1/2 (Thr^202/Tyr^204)(Cell Signaling Technology, Beverly, Mass., USA), anti-ERK1/2 (Cell Signaling Technology, Beverly, Mass., USA), anti-CTGF (Abcam, Cambridge, Mass., USA), anti-Actin (Sigma, St. Louis, Mo., USA), or anti-Flag (Sigma, St. Louis, Mo., USA) antibody, and then, the film was visualized with a chemiluminescence substrate (Amersham Pharmacia).
To confirm this, the inventors obtained conditioned medium (CM) in HUVEC treated with VEGF-A, and FPRL1-overexpressing cells FPRL1/RBL were treated therewith in the concentration of 10 ng/ml or 50 ng/ml for 8 hours. At this time, as positive control, FPRL1 agonistic peptide WKYMVm (Trp-Lys-Tyr-Met-Val-D-Met, SEQ ID NO. 1) was treated with 10 nM.
After the treatment, immunoblot was conducted on cell lysate that was transferred to a nitrocellulose film with anti-phospho ERK (extracellular signal regulated kinase)1/2 and anti-ERK1/2 antibody (Cell Signaling Technology, Beverly, Mass., USA), and then, the film was visualized with a chemiluminescence substrate (Amersham Pharmacia), and the results are shown in FIG. 1.
Meanwhile, the above described vector/RBL, FPR/RBL, or FPRL1/RBL cells were respectively treated with the above conditioned medium or VEGF-A at the concentration of 10 ng/ml for 8 hours, and positive control was treated with 10 nM of agonistic peptide WKYMVm (SEQ ID NO. 1).
As described in the <Experiment method 5>, FPRL1/RBL cells were treated with 40 ug of the HPLC fraction of the conditioned medium for 5 minutes, and the result confirming whether ERK phosphorylation occurred as described in the <Experiment result 1> was shown in FIG. 3.
To confirm whether the purified proteins induce ERK phosphorylation in FPRL1/RBL cells, immunoblot was conducted as described in the <Experiment result 1>, and the results are shown in FIG. 9.
ERK phosphorylation induction of CTGF linker polypeptide was compared to recombinant human CTGF (rhCTGF). Specifically, FPRL1/RBL cells were treated with CTGF linker polypeptide and rhCTGF for 5 minutes at various concentrations, ERK phosphorylation was measured, and the results are shown in FIG. 11. […]

[2] = tested on: HUVECs; assay: HUVEC tube formation on Matrigel; assay type: cell-based, human
Protocol: Meanwhile, to analyze tube formation, HUVECs were inoculated on the previously polymerized Matrigel (BD Biosciences) layer together with a certain amount of linker polypeptide, rhCTGF or VEGF-A165. After culturing for 18 hours, the shape of the cells was observed by phase-contrast microscopy, and photographed with 40× magnification. By measuring the length of tubes 5 times in LPF (low-power fields) randomly selected from each well using image-Pro Plus v4.5 (Media Cybernetics, Silver Spring, Md.), the degree of tube formation was quantified.
(§1) First, 20 ng/ml of VEGF-A was administered to HUVECs, the degree of cell proliferation, cell migration, or tube formation was confirmed by the <Experiment method 9>, and the results are shown in FIGS. 22 to 24. At this time, FPRL1 antagonist WRW4 was additionally added.

[3] = tested on: CAM (chorioallantoic membrane); assay: In vivo CAM (chorioallantoic membrane) angiogenesis analysis
Protocol: In vivo CAM analysis was conducted according to a previously known method (Lee, M.-S. et al. Angiogenic Activity of Pyruvic Acid in in Vivo and in Vitro Angiogenesis Models. Cancer Res 61, 3290-3293, 2001).
Fertilized eggs were cultured in an egg breeder set to fixed moisture at 37° C. 3 days after the culture, to take off expressed CAM from the shell, about 2 ml of egg albumin was taken out with 18-gague subcutaneous needle. After additionally culturing for 6 days, thermanox coverslips (Nunc) containing the sample was dried in the air, and applied to the CAM surface to test the activity of angiogenesis by linker polypeptide or rhCTGF. After 3 days, 1-2 ml of 10% (w/v) Intralipose was injected into chorioallantois, and observed with microscope.
And, it was confirmed by the <Experiment method 10> that in case HUVECs are treated with FPRL1 antagonist (10 ug/CAM) in vivo, angiogenesis activity of VEGF-A (25 ng/CAM) is inhibited, and the results are shown in FIG. 28.

[4] = tested on: HUVECs; assay: HUVEC proliferation assay ([3H]-thymidine); assay type: cell-based, human
Protocol: For proliferation assay, HUVECs were plate cultured in a gelatin-coated 24-well culture dish at 2×10^4 cells/well and allowed to adhere overnight. 4 hours after serum was depleted, the cells were treated with various mitogen (CTGF linker polypeptide, CTGF) for 48 hours. [^3H]-thymidine (1 μCi, Amersham International) was added to each well 6 hours before final culture. The inserted [^3H]-thymidine was extracted in 0.2 M NaOH and 0.1% SDS solution at 37° C. for 1 hour. Radioactivity was measured using liquid scintillation counter (Beckmann Instruments), which was repeated three times, and the result was indicated by mean±standard deviation per minute.
as §1

Substance	ERK phosphorylation compared to rhCTGF ([1]; 10 nM)	ERK phosphorylation compared to rhCTGF ([1]; various concentrations, 5 minutes)	tube formation of HUVECs ([2]; 18 hours, compared to recombinant CTGF)	angiogenesis in vivo (CAM) ([3]; sample on coverslip on CAM, 3 days)	proliferation of HUVECs ([4]; 48 hours, [3H]-thymidine)	effect of antagonist on ERK phosphorylation induced by CTGF linker polypeptide or rhCTGF ([1]; 10 nM CTGF linker polypeptide or rhCTGF, WRW4 10 uM)	effect of antagonist on HUVEC tube formation induced by VEGF-A ([2]; VEGF-A 20 ng/ml, WRW4 10 uM)	effect of antagonist on HUVEC tube formation induced by CTGF linker polypeptide ([2]; WRW4 10 uM)	effect of antagonist on CAM angiogenesis induced by VEGF-A ([3]; FPRL1 antagonist 10 ug/CAM, VEGF-A 25 ng/CAM)	effect of antagonist on CAM blood vessel formation induced by CTGF linker polypeptide ([3]; WRW4 10 uM)	effect of antagonist on HUVEC proliferation by VEGF-A ([4]; VEGF-A 20 ng/ml plus WRW4)
EWVCDEPKDQTVVGPALAAYRLEDTFGPDPTMIRANCLV (EWVCDEPKDQTVVGPALAAYRLEDTFGPDPTMIRANCLV-NH2; cysteine pairing not given here) [CTGF linker polypeptide]	induces ERK phosphorylation to a similar level to rhCTGF	induces ERK phosphorylation to a similar level to rhCTGF	induces tube formation of HUVECs more effectively than recombinant CTGF	very strongly induces angiogenesis also in vivo in a concentration-dependent manner	induces proliferation of HUVECs in a concentration-dependent manner, the degree is not statistically significant						
WRWWWW (FPRL1 antagonist) [WRW4]						ERK phosphorylation is inhibited	the tube formation is not induced	the tube formation is not be induced	strongly inhibits angiogenesis induced by VEGF-A	the blood vessel formation is not induced	did not exhibit statistically significant inhibition of HUVECs proliferation by VEGF-A
